Experimental data from ChEMBL document CHEMBL1135216, “New 2-(1-adamantylcarbonyl)pyridine and 1-acetyladamantane thiosemicarbazones-thiocarbonohydrazones: cell growth inhibitory, antiviral and antimicrobial activity evaluation” (Bioorg Med Chem Lett, 2002).
≈ marks a conversion by molar mass, not a printed value.

Tests used:
HeLa [1] = assay: Tested for antiviral activity against coxsackie-B4 virus in human epithelial cell line; format: functional
E6SM [2] = assay: Tested for antiviral activity against thymidine kinase-deficient (TK-HSV-2G) virus in E6SM cell line(human embryonic skin-muscle fibroblasts); format: functional
Vero [3] = assay: Tested for cytotoxic activity in African green monkey kidney cells (Vero); format: functional; settings: Chlorocebus sabaeus
E6SM [4] = assay: Tested for antiviral activity against herpes simplex virus type 1(KOS) in E6SM cell line(human embryonic skin-muscle fibroblasts); format: functional
Klebsiella pneumoniae = assay: Tested for the antimicrobial activity against Klebsiella pneumoniae ATCC 13883; format: functional
HuT78 [5] = assay: Tested for the inhibitory concentration against cell growth of human leukemic cell line HuT78; format: functional
E6SM [6] = assay: Tested for antiviral activity against VSV-virus in human embryonic skin muscle fibroblasts; format: functional; settings: Muscle tissue
HEL [7] = assay: Tested for antiviral activity against thymidine kinase deficient Varicella zoster virus in human embryonic lung fibroblasts; format: functional
HEL [8] = assay: Tested for cytotoxic activity in human embryonic lung fibroblast (HEL); format: functional
Vero [9] = assay: Tested for antiviral activity against coxsackie B-4 virus in African green monkey kidney cell (Vero); format: functional; settings: Chlorocebus sabaeus
MT4 [10] = assay: (§1) Tested for effective concentration required to protect MT-4 cells against the cytopathicity of HIV-1(IIIB); format: functional, cell-based; settings: Homo sapiens
HeLa [11] = assay: Tested for cytotoxic activity in human epithelial cell line (HeLa); format: functional
HeLa [12] = assay: The compound was tested for antiviral activity against VSV-virus in human epithelial cells; format: functional
MOLT-4 [13] = assay: Tested for the inhibitory concentration against cell growth of human leukemic cell line MOLT-4; format: functional
Vero [14] = assay: Tested for antiviral activity against Reo-1 virus in African green monkey kidney cell (Vero); format: functional; settings: Chlorocebus sabaeus
HL-60 [15] = assay: Tested for the inhibitory concentration against cell growth of HL60 acute myeloid leukemia using MTT assay; format: functional; settings: Homo sapiens
RPMI-8226 [16] = assay: Tested for the inhibitory concentration against cell growth of […] multiple myeloma using MTT assay; format: functional; settings: Homo sapiens
HL-60 [17] = assay: Tested for the concentration required to reduce the viability of leukemia cells by 50% against cell growth of HL60 acute myeloid leukemia using MTT assay; format: functional; settings: Homo sapiens, read-out: LC50 (the source's name)
CCRF-CEM [18] = assay: Tested for the concentration required to reduce the viability of leukemia cells by 50% against cell growth of T cell leukemia cell line CCRF-CEM using MTT assay; format: functional; settings: Homo sapiens, read-out: LC50 (the source's name)
Staphylococcus hominis = assay: Tested for the antimicrobial activity against Staphylococcus hominis ATCC 27844; format: functional
CCRF-CEM [19] = assay: Tested for the inhibitory concentration against cell growth of human leukemic cell line CCRF-CEM; format: functional
Vero [20] = assay: Tested for antiviral activity against parainfluenza virus in african green monkey kidney cell (Vero); format: functional; settings: Chlorocebus sabaeus
Vero [21] = assay: Tested for antiviral activity against Sindbis virus in African green monkey kidney cell (Vero); format: functional; settings: Chlorocebus sabaeus
Escherichia coli = assay: Tested for the antimicrobial activity against Escherichia coli ATCC 25922; format: functional
E6SM [22] = assay: Tested for cytotoxic activity in human embryonic skin muscle fibroblast (E6SM); format: functional; settings: Muscle tissue
RPMI-8226 [23] = assay: Tested for the concentration required to reduce the viability of leukemia cells by 50% against cell growth of RPMI8226 multiple myeloma using MTT assay; format: functional; settings: Homo sapiens
MT4 [24] = assay: (§2) Tested for cytotoxic concentration required to reduce the viability of MT-4 cells by 50%; format: functional; settings: Homo sapiens, read-out: LC50 (the source's name)
[25] = system: Staphylococcus epidermidis; assay: Tested for the antimicrobial activity against Staphylococcus epidermidis ATCC 12228; format: functional
E6SM [26] = assay: Tested for antiviral activity against vaccinia virus in human embryonic skin muscle fibroblast; format: functional; settings: Muscle tissue
HuT78 [27] = assay: Tested for the concentration required to reduce the viability of leukemia cells by 50% against cell growth of HuT78 T lymphoma using MTT assay; format: functional; settings: Homo sapiens, read-out: LC50 (the source's name)
Staphylococcus aureus = assay: Tested for the antimicrobial activity against Staphylococcus aureus ATCC 6538; format: functional
RPMI-8226 [28] = assay: Tested for the inhibitory concentration against cell growth of human leukemic cell line RPMI8226; format: functional
E6SM [29] = assay: The compound was tested for antiviral activity against thymidine kinase-deficient (TK-HSV-1)virus in E6SM cell line(human embryonic skin-muscle fibroblasts); format: functional
E6SM [30] = assay: (§3) Tested for antiviral activity against thymidine kinase wild type Varicella zoster virus in human embryonic lung fibroblast; format: functional
K562 [31] = assay: Tested for the concentration required to reduce the viability of leukemia cells by 50% against cell growth of K562 chronic myeloid leukemia using MTT assay; format: functional; settings: Homo sapiens, read-out: LC50 (the source's name)
Vero [32] = assay: Tested for antiviral activity against Punta toro virus in African green monkey kidney cell (Vero); format: functional; settings: Chlorocebus sabaeus
HEL [33] = assay: Tested for antiviral activity against human cytomegalovirus (AD-169) in human embryonic lung fibroblasts; format: functional
MOLT-4 [34] = assay: Tested for the concentration required to reduce the viability of leukemia cells by 50% against cell growth of T cell leukemia cell line MOLT-4 using MTT assay; format: functional; settings: Homo sapiens, read-out: LC50 (the source's name)
HL-60 [35] = assay: Tested for the inhibitory concentration against cell growth of human leukemic cell line HL60; format: functional
CCRF-CEM [36] = assay: Tested for the inhibitory concentration against cell growth of Tcell leukemic cell line CCRF-CEM using MTT assay; format: functional; settings: Homo sapiens
MT4 [37] = assay: as §2; format: functional, cell-based; settings: Homo sapiens, read-out: EC50 (the source's name)
MT4 [38] = assay: Tested for effective concentration required to protect MT-4 cells against the cytopathicity of HIV-2(ROD); format: functional, cell-based; settings: Homo sapiens
MOLT-4 [39] = assay: Tested for the inhibitory concentration against cell growth of Tcell leukemic cell line MOLT-4 using MTT assay; format: functional; settings: Homo sapiens
HuT78 [40] = assay: Tested for the inhibitory concentration against cell growth of HuT78 T lymphoma using MTT assay; format: functional; settings: Homo sapiens
K562 [41] = assay: Tested for the inhibitory concentration against cell growth of human leukemic cell line K562; format: functional
MT4 [42] = assay: as §1; format: functional; settings: Homo sapiens, read-out: LC50 (the source's name)
K562 [43] = assay: Tested for the inhibitory concentration against cell growth of K562 chronic myeloid leukemia using MTT assay; format: functional; settings: Homo sapiens
E6SM [44] = assay: Antiviral activity against thymidine kinase-deficient (TK-HSV-1)virus in E6SM cell line(human embryonic skin-muscle fibroblasts); format: functional
HEL [45] = assay: as §3; format: functional
E6SM [46] = assay: Antiviral activity against thymidine kinase-deficient (TK-HSV-2G) virus in E6SM cell line(human embryonic skin-muscle fibroblasts); format: functional

N/C(S)=N\N=C(\c1ccccn1)C12CC3CC(CC(C3)C1)C2
MIC (HeLa [1]): 240 µg/mL (≈ 763 µM) | MIC (E6SM [2]): > 400 µg/mL | MCC (Vero [3]): 16 µg/mL | CC50 (E6SM [4]): > 400 µg/mL | MIC (Klebsiella pneumoniae): > 3180 µg/mL | GI50 (HuT78 [5]): 2.4 µM | MIC (E6SM [6]): > 400 µg/mL | MIC (HEL [7]): > 20 µg/mL | MCC (HEL [8]): > 20 µg/mL | MIC (Vero [9]): > 3.2 µg/mL | EC50 (MT4 [10]): > 400 µM | MCC (HeLa [11]): > 400 µg/mL | MIC (HeLa [12]): > 400 µg/mL | GI50 (MOLT-4 [13]): 6.4 µM | MIC (Vero [14]): > 3.2 µg/mL | TGI (HL-60 [15]): 100 µM | TGI (RPMI-8226 [16]): 100 µM | CC50 (HL-60 [17]): 100 µM | CC50 (CCRF-CEM [18]): 100 µM | MIC (Staphylococcus hominis): > 3180 µg/mL | GI50 (CCRF-CEM [19]): 100 µM | MIC (Vero [20]): > 3.2 µg/mL | MIC (Vero [21]): > 3.2 µg/mL | MIC (Escherichia coli): > 3180 µg/mL | MCC (E6SM [22]): > 400 µg/mL | CC50 (RPMI-8226 [23]): 100 µM | CC50 (MT4 [24]): > 400 µM | MIC [25]: > 3180 µg/mL | MIC (E6SM [26]): > 400 µg/mL | CC50 (HuT78 [27]): 100 µM | MIC (Staphylococcus aureus): > 3180 µg/mL | GI50 (RPMI-8226 [28]): 97.9 µM | CC50 (E6SM [29]): > 400 µg/mL | MIC (E6SM [30]): > 20 µg/mL | CC50 (K562 [31]): 100 µM | MIC (Vero [32]): > 3.2 µg/mL | MIC (HEL [33]): > 5 µg/mL | CC50 (MOLT-4 [34]): 100 µM | GI50 (HL-60 [35]): 51.1 µM

N/N=C(\S)N/N=C(/c1ccccn1)C12CC3CC(CC(C3)C1)C2
MIC (HeLa [1]): > 80 µg/mL | MCC (Vero [3]): 80 µg/mL | MIC (E6SM [4]): > 16 µg/mL | MIC (Klebsiella pneumoniae): > 3040 µg/mL | GI50 (HuT78 [5]): 100 µM | TGI (CCRF-CEM [36]): 100 µM | MIC (E6SM [6]): > 16 µg/mL | MIC (HEL [7]): > 20 µg/mL | MCC (HEL [8]): > 20 µg/mL | MIC (Vero [9]): > 80 µg/mL | MCC (HeLa [11]): 400 µg/mL | CC50 (MT4 [37]): 27.3 µM | MIC (HeLa [12]): > 80 µg/mL | EC50 (MT4 [38]): > 27 µM | TGI (MOLT-4 [39]): 100 µM | TGI (HuT78 [40]): 100 µM | GI50 (MOLT-4 [13]): 100 µM | GI50 (K562 [41]): 41.7 µM | MIC (Vero [14]): > 80 µg/mL | TGI (HL-60 [15]): 100 µM | TGI (RPMI-8226 [16]): 100 µM | CC50 (HL-60 [17]): 100 µM | CC50 (CCRF-CEM [18]): 100 µM | MIC (Staphylococcus hominis): > 3040 µg/mL | GI50 (CCRF-CEM [19]): 100 µM | EC50 (MT4 [42]): > 27 µM | MIC (Vero [20]): > 80 µg/mL | MIC (Vero [21]): > 80 µg/mL | MIC (Escherichia coli): > 3040 µg/mL | MCC (E6SM [22]): > 80 µg/mL | CC50 (RPMI-8226 [23]; read-out: LC50 (the source's name)): 100 µM | TGI (K562 [43]): 100 µM | MIC [25]: > 3040 µg/mL | MIC (E6SM [26]): > 16 µg/mL | MIC (E6SM [44]): > 16 µg/mL | CC50 (HuT78 [27]): 100 µM | MIC (Staphylococcus aureus): > 3040 µg/mL | GI50 (RPMI-8226 [28]): 100 µM | MIC (HEL [45]): > 20 µg/mL | CC50 (K562 [31]): 100 µM | MIC (Vero [32]): > 80 µg/mL | MIC (HEL [33]): > 5 µg/mL | CC50 (MOLT-4 [34]): 100 µM | TGI (HL-60 [35]): 100 µM | MIC (E6SM [46]): > 16 µg/mL
